The compounds below were run on MOLM-13 cells (assay: MOLM-13 Cell Proliferation Assay (indicator of DHODH inhibition)). Conditions: Homo sapiens, 72 Hours of culture, CellTiter-Glo, no uridine.
Assay type: cell-based
How it was run: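 Low-passage MOLM-13 cells (10^4/well) in RPMI 1640 + 10% FBS exposed to compound (0.5% DMSO final) for 72 h at 37 °C, 5% CO2. Viability read by CellTiter-Glo luminescence; growth reflects de novo pyrimidine synthesis dependent on DHODH.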

| SMILES | IC50 [nM] |
| --- | --- |
| Cc1ccc(C2c3[nH]c4ccc(Cl)cc4c3CCN2c2ncc(F)cn2)c(F)c1F (stereo not shown) [Compound 401, 6-chloro-1-(2,3-difluoro-4-methylphenyl)-2-(5-fluoropyrimidin-2-yl)-2,3,4,9-tetrahydro-1H-pyrido[3,4-b]indole] | 3.2 |
| Cc1ccc([C@H]2c3[nH]c4ccc(Cl)cc4c3CCN2c2nc(C)nc(C)n2)cc1 [Compound 402, (1S)-6-chloro-2-(4,6-dimethyl-1,3,5-triazin-2-yl)-1-(4-methylphenyl)-2,3,4,9-tetrahydro-1H-pyrido[3,4-b]indole] | 4.7 |
| Cc1ccc([C@H]2c3[nH]c4ccc(Cl)cc4c3CCN2c2nc(C)nc(C#N)n2)cc1 [Compound 411, 4-[(1S)-6-chloro-1-(4-methylphenyl)-1,3,4,9-tetrahydro-2H-pyrido[3,4-b]indol-2-yl]-6-methyl-1,3,5-triazine-2-carbonitrile] | 3.7 |
| N#Cc1ncnc(N2CCc3c([nH]c4ccc(Cl)cc34)[C@@H]2c2cnc(N3CCOCC3)nc2)n1 [Compound 414, 4-{(1S)-6-chloro-1-[2-(morpholin-4-yl)pyrimidin-5-yl]-1,3,4,9-tetrahydro-2H-pyrido[3,4-b]indol-2-yl}-1,3,5-triazine-2-carbonitrile] | 38 |
| Cc1nc(C#N)nc(N2CCc3c([nH]c4ccc(Cl)cc34)[C@@H]2c2cnc(N3CCOCC3)nc2)n1 [Compound 415, 4-{(1S)-6-chloro-1-[2-(morpholin-4-yl)pyrimidin-5-yl]-1,3,4,9-tetrahydro-2H-pyrido[3,4-b]indol-2-yl}-6-methyl-1,3,5-triazine-2-carbonitrile] | 50.6 |
| Fc1ccc(C2c3[nH]c4ccc(Cl)cc4c3CCN2c2nccc(C(F)(F)F)n2)cc1 (stereo not shown) [Compound 422, 6-chloro-1-(4-fluorophenyl)-2-[4-(trifluoromethyl)pyrimidin-2-yl]-2,3,4,9-tetrahydro-1H-pyrido[3,4-b]indole] | 7.1 |
| Fc1ccc(C2c3[nH]c4ccc(Cl)cc4c3CCN2c2nccc(C(F)(F)F)n2)c(F)c1 (stereo not shown) [Compound 423, 6-chloro-1-(2,4-difluorophenyl)-2-[4-(trifluoromethyl)pyrimidin-2-yl]-2,3,4,9-tetrahydro-1H-pyrido[3,4-b]indole] | 6.1 |
| Cc1ccc([C@H]2c3[nH]c4ccc(Cl)cc4c3CCN2c2nc(N)nc(C(F)(F)F)n2)cc1 [Compound 426, 4-[(1S)-6-chloro-1-(4-methylphenyl)-1,3,4,9-tetrahydro-2H-pyrido[3,4-b]indol-2-yl]-6-(trifluoromethyl)-1,3,5-triazin-2-amine] | 65 |
| FC(F)(F)c1nc(N2CCOCC2)nc(N2CCc3c([nH]c4ccc(Cl)cc34)C2c2ccc(N3CCOCC3)nc2)n1 (stereo not shown) [Compound 428, 6-chloro-1-[6-(morpholin-4-yl)pyridin-3-yl]-2-[4-(morpholin-4-yl)-6-(trifluoromethyl)-1,3,5-triazin-2-yl]-2,3,4,9-tetrahydro-1H-pyrido[3,4-b]indole] | 5.2 |

Stronger by IC50, values ahead:

| IC50 [nM] | SMILES |
| --- | --- |
| 2.3 | N#Cc1nc(N2CCc3c([nH]c4ccc(Cl)cc34)[C@@H]2c2ccc(N3CCOCC3)nc2)ncc1F [Compound 400, 2-{(1S)-6-chloro-1-[6-(morpholin-4-yl)pyridin-3-yl]-1,3,4,9-tetrahydro-2H-pyrido[3,4-b]indol-2-yl}-5-fluoropyrimidine-4-carbonitrile] |
| 0.7 | Cc1ccc(C2c3[nH]c4ccc(Cl)cc4c3CCN2c2nncc(C(F)(F)F)n2)c(F)c1F (stereo not shown) [Compound 403, 6-chloro-1-(2,3-difluoro-4-methylphenyl)-2-[5-(trifluoromethyl)-1,2,4-triazin-3-yl]-2,3,4,9-tetrahydro-1H-pyrido[3,4-b]indole] |
| 0.4 | FC(F)(F)c1nc(N2CCc3c([nH]c4ccc(Cl)cc34)C2c2ccc(N3CCOCC3)nc2)nc(C(F)(F)F)n1 (stereo not shown) [Compound 404, 2-[4,6-bis(trifluoromethyl)-1,3,5-triazin-2-yl]-6-chloro-1-[6-(morpholin-4-yl)pyridin-3-yl]-2,3,4,9-tetrahydro-1H-pyrido[3,4-b]indole] |
| 1 | Cc1ccc([C@H]2c3[nH]c4ccc(Cl)cc4c3CCN2c2nc(C)c(F)c(C)n2)c(F)c1F [Compound 412, (1S)-6-chloro-1-(2,3-difluoro-4-methylphenyl)-2-(5-fluoro-4,6-dimethylpyrimidin-2-yl)-2,3,4,9-tetrahydro-1H-pyrido[3,4-b]indole] |
| 0.8 | Cc1ccc([C@H]2c3[nH]c4ccc(Cl)cc4c3CCN2c2nc(C)c(F)c(C#N)n2)c(F)c1F [Compound 413, 2-[(1S)-6-chloro-1-(2,3-difluoro-4-methylphenyl)-1,3,4,9-tetrahydro-2H-pyrido[3,4-b]indol-2-yl]-5-fluoro-6-methylpyrimidine-4-carbonitrile] |
| 2.7 | Cc1ccc([C@H]2c3[nH]c4ccc(Cl)cc4c3CCN2c2nc(C#N)cc(C(F)(F)F)n2)c(F)c1F [Compound 416, 2-[(1S)-6-chloro-1-(2,3-difluoro-4-methylphenyl)-1,3,4,9-tetrahydro-2H-pyrido[3,4-b]indol-2-yl]-6-(trifluoromethyl)pyrimidine-4-carbonitrile] |
| 1.9 | Cc1ccc([C@H]2c3[nH]c4ccc(Cl)cc4c3CCN2c2nc(C)c(F)c(C#N)n2)cc1 [Compound 417, 2-[(1S)-6-chloro-1-(4-methylphenyl)-1,3,4,9-tetrahydro-2H-pyrido[3,4-b]indol-2-yl]-5-fluoro-6-methylpyrimidine-4-carbonitrile] |
| 1.7 | Cc1nc(N2CCc3c([nH]c4ccc(Cl)cc34)[C@@H]2c2cnc(N3CCOCC3)nc2)nc(C#N)c1F [Compound 421, 2-{(1S)-6-chloro-1-[2-(morpholin-4-yl)pyrimidin-5-yl]-1,3,4,9-tetrahydro-2H-pyrido[3,4-b]indol-2-yl}-5-fluoro-6-methylpyrimidine-4-carbonitrile] |
| 2 | Cc1nc(N2CCc3c([nH]c4ccc(Cl)cc34)[C@@H]2c2ccc(N3CCOCC3)nc2)nc(C#N)c1F [Compound 424, 2-{(1S)-6-chloro-1-[6-(morpholin-4-yl)pyridin-3-yl]-1,3,4,9-tetrahydro-2H-pyrido[3,4-b]indol-2-yl}-5-fluoro-6-methylpyrimidine-4-carbonitrile] |
| 1.2 | Cc1ccc([C@H]2c3[nH]c4ccc(Cl)cc4c3CCN2c2nc(C#N)cc(C(F)(F)F)n2)cc1 [Compound 425, 2-[(1S)-6-chloro-1-(4-methylphenyl)-1,3,4,9-tetrahydro-2H-pyrido[3,4-b]indol-2-yl]-6-(trifluoromethyl)pyrimidine-4-carbonitrile] |
| 1.6 | FC(F)(F)c1cnnc(N2CCc3c([nH]c4ccc(Cl)cc34)C2c2ccc(N3CCOCC3)nc2)n1 (stereo not shown) [Compound 429, 6-chloro-1-[6-(morpholin-4-yl)pyridin-3-yl]-2-[5-(trifluoromethyl)-1,2,4-triazin-3-yl]-2,3,4,9-tetrahydro-1H-pyrido[3,4-b]indole] |
| 1.8 | Cc1ccc(C2c3[nH]c4ccc(Cl)cc4c3CCN2c2nncc(C(F)(F)F)n2)cc1 (stereo not shown) [Compound 430, 6-chloro-1-(4-methylphenyl)-2-[5-(trifluoromethyl)-1,2,4-triazin-3-yl]-2,3,4,9-tetrahydro-1H-pyrido[3,4-b]indole] |
| 1.6 | Fc1nc(N2CCOCC2)ccc1C1c2[nH]c3ccc(Cl)cc3c2CCN1c1nccc(C(F)(F)F)n1 (stereo not shown) [Compound 432, 6-chloro-1-[2-fluoro-6-(morpholin-4-yl)pyridin-3-yl]-2-[4-(trifluoromethyl)pyrimidin-2-yl]-2,3,4,9-tetrahydro-1H-pyrido[3,4-b]indole] |
